Assay results as given in patent US4990531A, “Derivatives of 1-arylsulphonyl-2-pyrrolidinone and their use as medicaments” (Roussel Uclaf, priority 1988, dated 1991).
Like-named read-outs stand apart in the source and are kept apart here.

Tests used:
[1] = tested on: cholinomimetic effects induced by carbachol; assay: In vivo anticholinergic action: inhibition of carbachol-induced cholinomimetic effects; parameters: species or system CD1 male mice; conditions: for ED50 / ED (1 degree C): Mus musculus, ip, 0.5 h; for ED (1 degree C): rectal temperature, read-out: Body Temperature: dose able to increase by 1° C. the hypothermic effect induced by carbachol
Procedure: The anticholinergic activity of the compounds was determined by evaluating the capacity to inhibit cholinomimetic effects induced by carbachol. Atropine sulphate was used as reference product.
CD1 male mice are used weighing 25 to 30 g. They are divided into groups of 5 animals and treated by intraperitoneal route, in scaled doses, with the products or with 0.25% of Methocel for the controls. 10 animals are used for each dose. 30 minutes after the administration of the compounds, the mice are subcutaneously injected with 1 mg/kg of carbachol, dissolved in physiological serum.
Each animal was examined 30 minutes after the injection of carbachol to evaluate the presence of diarrhea, salivation and watering of the eyes; the body temperature was also measured using a thermocouple inserted 1.5 cm into the rectum.
For each compound, there was determined, and recorded in the following table, the dose able to inhibit, in 50% of the animals, the appearance of peripheral cholinomimetic symptoms induced by carbachol, and to increase by 1° C. the hypothermic effect induced by the cholinergic agent.

[2] = tested on: contractions induced by barium chloride, isolated ileum; assay: Antagonism of barium chloride-induced contractions, isolated guinea-pig ileum; conditions: barium chloride 2×10^-4 M; contact time one minute; read-out: Antagonism with various agents (IC50): BaCL2
Procedure: (§1) The interaction of the compounds with various receptors was evaluated on the isolated ileum of a guinea-pig according to the following method.
(§2) Segments of the ileum of guinea-pigs of 2.5-3 cm were washed and immediately suspended in a bath containing 10 ml of Tyrode's solution at 37° C. and aerated with a mixture of oxygen (95%) and carbon dioxide (5%). After a stabilization period of at least 30 minutes contractions were recorded, while the preparation was maintained under constant tension of 1 g, by means of a detector connected to a polygraph. The agonistic action was evaluated by leaving the compound in contact with the isolated tissue for a period necessary to show the maximum […]; then it was washed with the Tyrode's solution. The following dose was added only after the preparation had returned to its base line. Arecoline was used as a reference product. The antagonist action was evaluated on the contractions induced by acetylcholine (1×10^-6 M), histamine (1×10^-5 M), serotonine (1×10^-6 M) and barium chloride (2×10^-4 M). […] The contact time before adding the agonist was one minute.
(§3) For each compound the does response curves are obtained with 4 to 6 different concentrations and 3 to 5 independent tests. The agonist activity is expressed by pD2 (negative logarithm of the dose which produces 50% of the maximum effect).

isolated ileum = assay: Agonist action on isolated guinea-pig ileum; conditions: negative logarithm of the dose producing 50% of maximum effect
Procedure: as §1, §2, §3

[3] = tested on: contractions induced by acetylcholine, isolated ileum; assay: Antagonism of acetylcholine-induced contractions, isolated guinea-pig ileum; conditions: acetylcholine 1×10^-6 M; contact time one minute; read-out: Antagonism with various agents (IC50): Ach.
Procedure: as §1, §2, §3

[4] = tested on: contractions induced by acetylcholine, isolated colon; assay: Antagonism of acetylcholine-induced contractions, isolated colon of rat; conditions: acetylcholine 3×10^-6 M; contact 3 minutes
Procedure: The remarkable antagonist action of the compounds of the invention was confirmed on the isolated colon of rats. In this test it was established whether the antagonist activity was of competitive or non-competitive type.
(§4) The following method was used: segments of the colon of rats of about 2.5 cm are washed and suspended in an insulated bath containing 10 ml of a solution of De Jalon having the following composition: (mM): NaCl 154; KCl 5.7; CaCl2 0.27; NaHCO3 5.9 and glucose 2.5. The temperature of the bath is maintained at 32° C. In these conditions, while maintaining the preparation under a tension of 1 g, the spontaneous activity of the colon is minimal. After a stabilization period of at least 30 minutes, the tension variations are recorded using an isometric transducer connected to a recorder. A series of tests was carried out to evaluate the antagonist activity in relation to the contractions induced by a maximum dose of acetylcholine. (3×10^-6 M).
The compounds are left in contact with the preparation for 3 minutes before adding acetylcholine.
Atropine was used as a reference product. For each compound the dose-response curves are obtained with 4 to 6 different concentrations and 3 to 5 independent tests.

[5] = biological target: T1, muscarine receptors, involved in the contractions of the colon (Rattus norvegicus, UniProt P08483); assay: Antagonist affinity and type of antagonism (Schild), isolated colon of rat
T1 construct: segments of the colon of rats of about 2.5 cm; from tissue; host or cells: isolated rat colon segments
T1 sequence (P08483 whole entry): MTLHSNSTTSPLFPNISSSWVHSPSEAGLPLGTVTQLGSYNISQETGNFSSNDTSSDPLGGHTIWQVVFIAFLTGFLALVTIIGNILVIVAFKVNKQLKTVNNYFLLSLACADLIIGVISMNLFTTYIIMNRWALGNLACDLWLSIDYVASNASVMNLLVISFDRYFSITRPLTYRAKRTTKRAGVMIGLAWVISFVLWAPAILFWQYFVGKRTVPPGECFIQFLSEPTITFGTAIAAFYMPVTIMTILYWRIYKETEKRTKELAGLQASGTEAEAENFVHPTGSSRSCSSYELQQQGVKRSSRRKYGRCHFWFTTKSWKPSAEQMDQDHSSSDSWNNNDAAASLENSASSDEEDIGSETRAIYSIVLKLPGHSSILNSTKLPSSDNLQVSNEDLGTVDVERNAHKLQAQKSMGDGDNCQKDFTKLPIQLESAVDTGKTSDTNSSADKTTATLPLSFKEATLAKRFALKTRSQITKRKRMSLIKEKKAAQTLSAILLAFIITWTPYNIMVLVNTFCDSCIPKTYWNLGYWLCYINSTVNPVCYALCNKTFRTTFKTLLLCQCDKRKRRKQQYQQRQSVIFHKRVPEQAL
Procedure: as §4
For each compound the dose-response curves are obtained with 4 to 6 different concentrations and 3 to 5 independent tests.
In a second series of tests the acetylcholine is added to the bath in cumulative doses according to the van Rossum method (J. M. van Rossum, Arch, Int. Pharmacodyn. 143, 299, 1963). Having obtained two equal and consecutive dose-response curves with acetylcholine, a third dose-responsecurve is obtained in the presence of the compound (contact time of compound before acetylcholine=5 min.) Each compound was tested with 3-4 different concentrations
The antagonist affinity and the type of antagonism (competitive, non-competitive) for the muscarine receptors was calculated according to Schild's method (H. D. Schild, Brit. J. Pharmacol. 2, 189, 1947).

[6] = Solubility in various solvents; format: physicochemical
[7] = i.p., carbachol 1 mg/kg s.c. 30 min later, read-out: dose able to inhibit, in 50% of the animals, Diarrhea
[8] = i.p., carbachol 1 mg/kg s.c. 30 min later, read-out: dose able to inhibit, in 50% of the animals, Salivation
[9] = i.p., carbachol 1 mg/kg s.c. 30 min later, read-out: dose able to inhibit, in 50% of the animals, Watering of Eyes
[10] = i.p., carbachol 1 mg/kg s.c. 30 min later

SMILES: C[N+](C)(C)CCOC(N)=O [carbachol, reference compound]
- decrease in rectal temperature ([1]; carbachol 1 mg/kg s.c., control mice): about 2.5 °C
- induction of diarrhea, salivation and watering of the eyes ([1]; carbachol 1 mg/kg s.c., control mice, in words): induced diarrhea, salivation and watering of the eyes in all the control mice

SMILES: O=C1CCCN1S(=O)(=O)c1ccc(N2CCCCC2)cc1 [Example 10, 1-[4-(1-piperidinyl)phenylsulphonyl]-2-pyrrolidinone]
- ED50 [1, 7]: 3 mg/kg
- ED50 [1, 8]: 50 mg/kg
- ED50 [1, 9]: > 50 mg/kg
- ED (1 degree C) [1, 10]: > 50 mg/kg
- selective anticholinergic action in vivo ([1]; i.p., mice, in words): selective anticholinergic action on the intestinal musculature

SMILES: COc1ccc(Cc2nccc3cc(OC)c(OC)cc23)cc1OC [Papaverine, reference compound]
- IC50 [2]: 45000 nM

SMILES: COC(=O)C1=CCCN(C)C1 [Arecoline, reference compound]
- Agonist Action (pD2) (isolated ileum): 6.68

SMILES: CN1[C@@H]2CC[C@H]1C[C@@H](OC(=O)C(CO)c1ccccc1)C2 (stereo partly shown) [Atropine, reference compound]
- IC50 [3]: 9.5 nM
- IC50 [4]: 27 nM
- "Slope" of Schild plot, isolated colon of rat ([5]; cumulative acetylcholine, Schild's method, contact 5 min): 0.97
- displacement of the dose-response curve of acetylcholine ([5]; isolated colon of rat, in words): parallel displacement towards the right of the dose-response curve of acetyl-choline without reducing the maximum contraction
- ED50 ([1]; read-out: dose able to inhibit, in 50% of the animals, Diarrhea): 0.04 mg/kg
- ED50 ([1]; read-out: dose able to inhibit, in 50% of the animals, Salivation): 0.06 mg/kg
- ED50 ([1]; read-out: dose able to inhibit, in 50% of the animals, Watering of Eyes): 0.05 mg/kg

SMILES: O=C1CCCN1S(=O)(=O)c1ccc(N2CCCCCC2)cc1 [Example 18, 1-[4-(4-hexahydroazepin)phenylsulphonyl]-2-pyrrolidinone]
- ED50 [1, 7]: 1 mg/kg
- ED50 [1, 8]: 15 mg/kg
- ED50 [1, 9]: 50 mg/kg
- ED (1 degree C) [1, 10]: 15 mg/kg

SMILES: CN(C)c1ccc(S(=O)(=O)N2CCCC2=O)cc1 [Example 3]
- solubility ([6]; 2N hydrochloric acid): insoluble
- solubility ([6]; 2N sodium hydroxide): insoluble
- solubility ([6]; acetone): slightly soluble
- solubility ([6]; alcohol at 95°): slightly soluble
- solubility ([6]; benzene): slightly soluble
- solubility ([6]; chloroform): Soluble
- solubility ([6]; ethyl ether): insoluble
- solubility ([6]; water): insoluble
